Measured values taken from US20260347337A1, “MICROBIOCIDAL PYRAZOLE DERIVATIVES” (priority 2022, published 2026).

How the values were obtained:
[1] = tested on: Monographella nivalis (Microdochium nivale); assay: Monographella nivalis (Microdochium nivale)/liquid culture (foot rot cereals), inhibition of growth; assay type: cell-based; settings: liquid culture, PDB, 24° C., 4-5 days after application, read-out: control of Monographella nivalis (inhibition of growth vs untreated)
Experimental: Example B8: Monographella nivalis (Microdochium nivale)/Liquid Culture (Foot Rot Cereals)
(§1) Conidia of the fungus from cryogenic storage are directly mixed into nutrient broth (PDB potato dextrose broth). After placing a (DMSO) solution of test compound into a microtiter plate (96-well format), the nutrient broth containing the fungal spores is added. The test plates are incubated at 24° C. and the inhibition of growth is determined photometrically 4-5 days after application.

[2] = tested on: Phaeosphaeria nodorum (Septoria nodorum); assay: Phaeosphaeria nodorum (Septoria nodorum)/wheat/leaf disc preventative (glume blotch); assay type: in vivo; settings: 200 ppm, wheat leaf segments cv. Kanzler, inoculated 2 days after application, assessed 5-7 days after application
Experimental: Example B7: Phaeosphaeria nodorum (Septoria nodorum)/Wheat/Leaf Disc Preventative (Glume Blotch)
(§2) Wheat leaf segments cv. Kanzler are placed on agar in a multiwell plate (24-well format) and sprayed with the formulated test compound diluted in water. The leaf disks are inoculated with a spore suspension of the fungus 2 days after application. The inoculated test leaf disks are incubated at 20° C. and 75% rh under a light regime of 12 h light/12 h darkness in a climate cabinet and the activity of a compound is assessed as percent disease control compared to untreated when an appropriate level of disease damage appears in untreated check leaf disks (5-7 days after application).

Pyrenophora teres = assay: Pyrenophora teres/barley/leaf disc preventative (net blotch); assay type: in vivo; settings: 200 ppm, barley leaf segments cv. Hasso, inoculated 2 days after application, assessed 5-7 days after application
Experimental: Example B10: Pyrenophora teres/Barley/Leaf Disc Preventative (Net Blotch)
as §2, with “Barley” for “Wheat”, “Hasso” for “Kanzler”, “segments” for “disks”, “inoculated” for “inoculated test”, “65%” for “75%”, “as” for “as percent”

[3] = tested on: Blumeria graminis f. sp. tritici (Erysiphe graminis f. sp. tritici); assay: Blumeria graminis f. sp. tritici/wheat/leaf disc preventative (powdery mildew on wheat); assay type: in vivo; settings: 200 ppm, wheat leaf segments cv. Kanzler, inoculated 1 day after application, assessed 6-8 days after application
Experimental: Example B4: Blumeria graminis f. Sp. Tritici (Erysiphe graminis f. Sp. Tritici)/Wheat/Leaf Disc Preventative (Powdery Mildew on Wheat)
Wheat leaf segments cv. Kanzler are placed on agar in a multiwell plate (24-well format) and sprayed with the formulated test compound diluted in water. The leaf disks are inoculated by shaking powdery mildew infected plants above the test plates 1 day after application. The inoculated leaf disks are incubated at 20° C. and 60% rh under a light regime of 24 h darkness followed by 12 h light/12 h darkness in a climate chamber and the activity of a compound is assessed as percent disease control compared to untreated when an appropriate level of disease damage appears on untreated check leaf segments (6-8 days after application).

[4] = tested on: Mycosphaerella graminicola (Septoria tritici); assay: Mycosphaerella graminicola (Septoria tritici)/liquid culture (Septoria blotch), inhibition of growth; assay type: cell-based; settings: Zymoseptoria tritici, liquid culture, PDB, 24° C., 4-5 days after application, read-out: control of Mycosphaerella graminicola (inhibition of growth vs untreated)
Experimental: Example B12: Mycosphaerella graminicola (Septoria tritici)/Liquid Culture (Septoria Blotch)
as §1

[5] = tested on: Glomerella lagenarium (Colletotrichum lagenarium); assay: Glomerella lagenarium (Colletotrichum lagenarium)/liquid culture (anthracnose), inhibition of growth; assay type: cell-based; settings: Colletotrichum orbiculare, liquid culture, PDB, 24° C., 3-4 days after application, read-out: control of Glomerella lagenarium (inhibition of growth vs untreated)
Experimental: Example B3: Glomerella lagenarium (Colletotrichum lagenarium)/Liquid Culture (Anthracnose)
as §1, with “measured” for “determined”, “3-4” for “4-5”

Alternaria solani = assay: Alternaria solani/tomato/leaf disc (early blight); assay type: in vivo; settings: 200 ppm; tomato leaf disks cv. Baby; inoculated 2 days after application; assessed 5-7 days after application
Experimental: Example B1: Alternaria solani/Tomato/Leaf Disc (Early Blight)
Tomato leaf disks cv. Baby are placed on agar in multiwell plates (24-well format) and sprayed with the formulated test compound diluted in water. The leaf disks are inoculated with a spore suspension of the fungus 2 days after application. The inoculated leaf disks are incubated at 23° C./21° C. (day/night) and 80% rh under a light regime of 12/12 h (light/dark) in a climate cabinet and the activity of a compound is assessed as percent disease control compared to untreated when an appropriate level of disease damage appears on untreated check disk leaf disks (5-7 days after application).

[6] = tested on: Gibberella zeae (Fusarium graminearum); assay type: in vivo; settings: 200 ppm; wheat spikelets cv. Monsun; preventative, inoculated 1 day after application; assessed 6-8 days after application
Fusarium culmorum [7] = assay: microbe, parasite or virus in culture; assay type: cell-based; settings: read-out: control of Fusarium culmorum (inhibition of growth vs untreated)
[8] = tested on: Botryotinia fuckeliana (Botrytis cinerea); assay: Botryotinia fuckeliana (Botrytis cinerea)/liquid culture (gray mould), inhibition of growth; assay type: cell-based; settings: liquid culture, Vogels broth, 24° C., 3-4 days after application, read-out: control of Botryotinia fuckeliana (inhibition of growth vs untreated)
Experimental: Example B2: Botryotinia fuckeliana (Botrytis cinerea)/Liquid Culture (Gray Mould)
as §1, with “(Vogels” for “(PDB potato dextrose”, “3-4” for “4-5”

[9] = tested on: Mycosphaerella arachidis (Cercospora arachidicola); assay: Mycosphaerella arachidis (Cercospora arachidicola)/liquid culture (early leaf spot), inhibition of growth; assay type: cell-based; settings: liquid culture, PDB, 24° C., 4-5 days after application, read-out: control of Mycosphaerella arachidis (inhibition of growth vs untreated)
Experimental: Example B9: Mycosphaerella arachidis (Cercospora arachidicola)/Liquid Culture (Early Leaf Spot)
as §1

Fusarium culmorum [10] = assay type: in vivo; settings: 200 ppm; wheat spikelets cv. Monsun; preventative, inoculated 1 day after application; assessed 6-8 days after application
Sclerotinia sclerotiorum = assay: Sclerotinia sclerotiorum/liquid culture (cottony rot), inhibition of growth; assay type: cell-based; settings: liquid culture (mycelia fragments), PDB, 24° C., 3-4 days after application, read-out: control of Sclerotinia sclerotiorum (inhibition of growth vs untreated)
Experimental: Example B11: Sclerotinia sclerotiorum/Liquid Culture (Cottony Rot)
as §1, with “Mycelia fragments of a newly grown liquid culture” for “Conidia”, “fungus” for “fungus from cryogenic storage”, “format)” for “format),”, “material” for “spores”, “3-4” for “4-5”

Plasmopara viticola = assay type: in vivo; settings: 200 ppm; grape vine leaf disks; preventative, inoculated 1 day after application; assessed 6-8 days after application
Phytophthora infestans = assay type: in vivo; settings: 200 ppm; tomato leaf disks; preventative, inoculated 1 day after application; assessed 5-7 days after application

Row | Structure (SMILES) | inhibition of growth at 20 ppm [1] [%] | control of Phaeosphaeria nodorum (percent disease control compared to untreated) [2] | control of Pyrenophora teres (disease control compared to untreated) (Pyrenophora teres) | control of Blumeria graminis f. sp. tritici (percent disease control compared to untreated) [3] | inhibition of growth at 20 ppm [4] [%] | inhibition of growth at 20 ppm [5] [%] | control of Alternaria solani (percent disease control compared to untreated) (Alternaria solani) | control of Gibberella zeae (percent disease control compared to untreated) [6] | inhibition of growth at 20 ppm (Fusarium culmorum [7]) [%] | inhibition of growth at 20 ppm [8] [%] | inhibition of growth at 20 ppm [9] [%] | control of Fusarium culmorum (percent disease control compared to untreated) (Fusarium culmorum [10]) | inhibition of growth at 20 ppm (Sclerotinia sclerotiorum) [%] | control of Plasmopara viticola (percent disease control compared to untreated) (Plasmopara viticola) | control of Phytophthora infestans (percent disease control compared to untreated) (Phytophthora infestans)
1 | Cn1cc(C(C)(CNC(=O)c2cn(-c3ccc(F)cc3F)nn2)c2cccc(C#N)n2)cn1 (stereo not shown) [Compound P-9, N-[2-(6-cyano-2-pyridyl)-2-(1-methylpyrazol-4-yl)propyl]-1-(2,4-difluorophenyl)triazole-4-carboxamide] | ≥ 80 | at least 80% | at least 80% | at least 80% | ≥ 80 |  |  |  |  |  |  |  |  |  | 
2 | Cn1cc(C(C)(CNC(=O)c2cn(-c3ncc(F)cc3F)nn2)c2cccc(Cl)n2)cn1 (stereo not shown) [Compound P-7, N-[2-(6-chloro-2-pyridyl)-2-(1-methylpyrazol-4-yl)propyl]-1-(3,5-difluoro-2-pyridyl)triazole-4-carboxamide] | ≥ 80 | at least 80% | at least 80% | at least 80% | ≥ 80 | ≥ 80 | at least 80% | at least 80% | ≥ 80 | ≥ 80 | ≥ 80 |  |  |  | 
3 | Cn1cc(C(C)(CNC(=O)c2cnn(-c3ccc(F)cc3F)n2)c2cccc(Cl)n2)cn1 (stereo not shown) [Compound P-3, N-[2-(6-chloro-2-pyridyl)-2-(1-methylpyrazol-4-yl)propyl]-2-(2,4-difluorophenyl)triazole-4-carboxamide] |  |  | at least 80% |  |  |  | at least 80% |  |  |  |  |  |  |  | 
4 | Cn1cc(C(C)(CNC(=O)c2nnn(-c3ccc(F)cc3F)n2)c2cccc(Cl)n2)cn1 (stereo not shown) [Compound P-6, N-[2-(6-chloro-2-pyridyl)-2-(1-methylpyrazol-4-yl)propyl]-2-(2,4-difluorophenyl)tetrazole-5-carboxamide] | ≥ 80 | at least 80% | at least 80% | at least 80% | ≥ 80 | ≥ 80 | at least 80% |  | ≥ 80 | ≥ 80 | ≥ 80 | at least 80% | ≥ 80 |  | 
5 | Cn1cc(C(C)(CNC(=O)c2nnn(-c3ccc(F)cc3F)n2)c2cccc(C#N)n2)cn1 (stereo not shown) [Compound P-5, N-[2-(6-cyano-2-pyridyl)-2-(1-methylpyrazol-4-yl)propyl]-2-(2,4-difluorophenyl)tetrazole-5-carboxamide] | ≥ 80 | at least 80% | at least 80% | at least 80% | ≥ 80 | ≥ 80 | at least 80% |  |  | ≥ 80 | ≥ 80 |  | ≥ 80 |  | 
6 | Cn1cc(C(C)(CNC(=O)c2cn(-c3ccc(F)cc3F)nn2)c2cccc(Br)n2)cn1 (stereo not shown) [Compound P-8, N-[2-(6-bromo-2-pyridyl)-2-(1-methylpyrazol-4-yl)propyl]-1-(2,4-difluorophenyl)triazole-4-carboxamide] | ≥ 80 | at least 80% | at least 80% | at least 80% | ≥ 80 | ≥ 80 | at least 80% |  | ≥ 80 | ≥ 80 | ≥ 80 |  |  |  | 
7 | Cn1cc(C(C)(CNC(=O)c2cn(-c3ccc(F)cc3F)nn2)c2cccc(Cl)n2)cn1 (stereo not shown) [Compound P-1, N-[2-(6-chloro-2-pyridyl)-2-(1-methylpyrazol-4-yl)propyl]-1-(2,4-difluorophenyl)triazole-4-carboxamide] | ≥ 80 | at least 80% | at least 80% | at least 80% | ≥ 80 | ≥ 80 | at least 80% |  | ≥ 80 | ≥ 80 | ≥ 80 |  |  | at least 80% | 
8 | Cn1cc(C(C)(CNC(=O)c2cnn(-c3ccc(F)cc3F)n2)c2cccc(C#N)n2)cn1 (stereo not shown) [Compound P-2, N-[2-(6-cyano-2-pyridyl)-2-(1-methylpyrazol-4-yl)propyl]-2-(2,4-difluorophenyl)triazole-4-carboxamide] |  |  |  | at least 80% |  |  |  |  |  |  |  |  |  | at least 80% | at least 80%
